Our source for the MIC values is US4861788A, “Antibacterial 1-normon-2-yl-heterocyclic compounds” (Beecham Group plc, priority 1983, dated 1989).

For one assay, the system named is M. hyopneumoniae HK (2). Description: MIC against Mycoplasma in vitro (Friis broth with agarose). Type of assay: cell-based. Conditions: Mesomycoplasma hyopneumoniae, 144 h.
The test system of assay [1] is M. hyopneumoniae NCTC 101101. The description is as above. The assay is classed as cell-based. Conditions: Mesomycoplasma hyopneumoniae, NCTC101101, 144 h.
The test system of assay [2] is M. hyopneumoniae J2206/183^b. The description is as above. As to conditions: Mesomycoplasma hyopneumoniae, 144 h. Type of assay: cell-based.
For assay [3], the system named is Haemophilus influenzae Wy21. Description: MIC against human bacteria in vitro (nutrient agar, chocolated horse blood). The assay is classed as cell-based. Conditions: human; Haemophilus influenzae Wy21; 18 hours at 37° C; read-out: MIC. The method, then:
(§1) The activity of the normonyl derivaties of the Examples against various bacteria which are important in diseases of humans, was assayed in vitro using serial dilutions in nurient agar with 5% chocolated horse blood.

Another assay deals with E. coli ESS. The assay is described as above. The assay is classed as cell-based. As to conditions: Escherichia coli; human; E. coli ESS; 18 hours at 37° C; read-out: MIC. The method, then:
as §1

A further assay has as its system Staph. aureus Oxford. The description is as above. The assay is classed as cell-based. Conditions: Staphylococcus aureus. The method, then: as §1
Assay [4] deals with Pasteurella multocida 1633. The assay is described as above. Type of assay: cell-based. As to conditions: human; Pasteurella multocida 1633; 18 hours at 37° C; read-out: MIC. As for the experimental part: as §1
The subject of the next assay is E. coli NCTC 10418. The assay is described as above. The assay is classed as cell-based. As to conditions: Escherichia coli, NCTC10418; human; E. coli NCTC 10418; 18 hours at 37° C; read-out: MIC. The method, then: as §1
The test system of another assay is Sarcina lutea 8340. Described as above. Type of assay: cell-based. Conditions: Micrococcus luteus; human; Sarcina lutea 8340; 18 hours at 37° C; read-out: MIC. The method, then:
as §1

The test system of another assay is Staph. aureus Russell. Described as above. The assay is classed as cell-based. Conditions: Staphylococcus aureus; human; Staph. aureus Russell; 18 hours at 37° C; read-out: MIC. The method, then: as §1
The next assay deals with Bacillus subtilis 6633. The description is as above. Type of assay: cell-based. As to conditions: human; Bacillus subtilis 6633; 18 hours at 37° C; read-out: MIC. The method, then: as §1
The next assay relates to Staph. aureus W2827. Described as above. Type of assay: cell-based. As to conditions: Staphylococcus aureus; human; Staph. aureus W2827; 18 hours at 37° C; read-out: MIC. As for the experimental part: as §1
Another assay relates to Strep. faecalis I. The description is as above. The assay is classed as cell-based. Conditions: Enterococcus faecalis; human; Strep. faecalis I; 18 hours at 37° C; read-out: MIC. The method, then: as §1
Assay [5] deals with Ps. aeruginosa NCTC 10662. The assay is described as above. The assay is classed as cell-based. As to conditions: Pseudomonas aeruginosa, NCTC10662; human; Ps. aeruginosa NCTC 10662; 18 hours at 37° C; read-out: MIC. As for the experimental part: as §1
The next assay relates to Strep. spp. 64/848-C. Described as above. The assay is classed as cell-based. Conditions: human; Strep. spp. 64/848-C; 18 hours at 37° C; read-out: MIC. The method, then: as §1
A further assay concerns Strep. agalactiae 2788-B. The description is as above. The assay is classed as cell-based. Conditions: Streptococcus agalactiae; human; Strep. agalactiae 2788-B; 18 hours at 37° C; read-out: MIC. As for the experimental part:
as §1

The next assay has as its system K. aerogenes A. The description is as above. Type of assay: cell-based. As to conditions: Klebsiella aerogenes; human; K. aerogenes A; 18 hours at 37° C; read-out: MIC. The method, then:
as §1

A further assay deals with P. mirabilis 889. Described as above. The assay is classed as cell-based. Conditions: Proteus mirabilis; human; P. mirabilis 889; 18 hours at 37° C; read-out: MIC. As for the experimental part: as §1
For assay [6], the system named is Neisseria catarrhalis 1502. The description is as above. The assay is classed as cell-based. The method, then: as §1
In a further assay the test system is Strep. dysgalactiae SPD1. Description: MIC against veterinary bacteria in vitro (Diagnostic Sensitivity Test Agar). Conditions: Streptococcus dysgalactiae, SPD1, 18 h.
A further assay relates to M. hyopneumoniae Str. 11. Description: MIC against Mycoplasma in vitro (Friis broth with agarose). Conditions: Mesomycoplasma hyopneumoniae. The assay is classed as cell-based.
The next assay relates to B. subtilis ATCC 6633. Description: MIC against veterinary bacteria in vitro (Diagnostic Sensitivity Test Agar). Conditions: Bacillus subtilis, ATCC6633, 18 h.
A further assay deals with M. hyopneumoniae NB12. Put plainly: MIC against Mycoplasma in vitro (Friis broth with agarose). The assay is classed as cell-based. As to conditions: Mesomycoplasma hyopneumoniae, NB12, 144 h.
The next assay relates to M. hyopneumoniae LABER. Described as above. Type of assay: cell-based. As to conditions: Mesomycoplasma hyopneumoniae, 144 h; M. hyopneumoniae LABER; 6 days at 37° C; read-out: MIC.
Assay [7] deals with Strep. pyogenes R80/421-A. Description: MIC against human bacteria in vitro (nutrient agar, chocolated horse blood). Conditions: Streptococcus pyogenes; human; Strep. pyogenes R80/421-A; 18 hours at 37° C; read-out: MIC. The assay is classed as cell-based. The method, then:
as §1

Assay [8] has as its system Corynebacterium xerosis 9755. The description is as above. Type of assay: cell-based. Conditions: human; Corynebacterium xerosis 9755; 18 hours at 37° C; read-out: MIC. The method, then:
as §1

The test system of assay [9] is M. hyopneumoniae PW/C/210. Put plainly: MIC against Mycoplasma in vitro (Friis broth with agarose). The assay is classed as cell-based. As to conditions: Mesomycoplasma hyopneumoniae, 144 h; M. hyopneumoniae PW/C/210; 6 days at 37° C; read-out: MIC.
Where [10] appears, read: M. hyopneumoniae J2206/183^b, 6 days at 37° C, read-out: MIC.
Where [11] appears, read: human, Staph. aureus Oxford, 18 hours at 37° C, read-out: MIC.

In brackets after ≈: the same amount, converted by molar mass. Like-named read-outs stand apart in the source and are kept apart here. A value given as a limit tells only on which side of the number the result lay.

Method for B. subtilis ATCC 6633: (§2) The activity of the normonyl derivatives of the Examples against various veterinarily important bacteria, was assayed in vitro using two-fold serial dilutions in Diagnostic Sensitivity Test Agar inoculated with 10^4 organisms.
Method for Strep. dysgalactiae SPD1: as §2

Turning to `CC(=Cc1nnc(-c2ccc(N(C)C)cc2)o1)CC1OCC(CC2OC2C(C)C(C)O)C(O)C1O` (stereo not shown) [Example 10, 2-(4-Dimethylaminophenyl)-5-(1-normon-2-yl)-1,3,4-oxadiazole A], the MIC in the assay on M. hyopneumoniae HK (2) is 5 µg/mL (≈ 10.3 µM); in [1], 5 µg/mL (≈ 10.3 µM); in [2], 5 µg/mL (≈ 10.3 µM); in assay [3] it was 2 µg/mL (≈ 4.1 µM); in the assay with E. coli ESS it was 2 µg/mL (≈ 4.1 µM); with Staph. aureus Oxford (18 h), 1 µg/mL (≈ 2.05 µM). Also, the MIC is 16 µg/mL (≈ 32.8 µM) in assay [4]; over 128 µg/mL in the assay on E. coli NCTC 10418; over 128 µg/mL in the assay with Sarcina lutea 8340; 4 µg/mL (≈ 8.2 µM) in the assay with Staph. aureus Russell; 2 µg/mL (≈ 4.1 µM) with Bacillus subtilis 6633; 4 µg/mL (≈ 8.2 µM) in the assay on Staph. aureus W2827. For the same compound, the MIC in the assay with Strep. faecalis I is over 128 µg/mL; in assay [5], over 128 µg/mL; in the assay with Strep. spp. 64/848-C, 16 µg/mL (≈ 32.8 µM); in the assay with Strep. agalactiae 2788-B it was 16 µg/mL (≈ 32.8 µM); with K. aerogenes A it was over 128 µg/mL; with P. mirabilis 889, over 128 µg/mL. Further, the MIC in assay [6] (Neisseria, 1502, 18 h) was 0.5 µg/mL (≈ 1.03 µM); with Strep. dysgalactiae SPD1 it was 80 µg/mL (≈ 164 µM); in the assay on M. hyopneumoniae Str. 11 (STR.11, 144 h), 1 µg/mL (≈ 2.05 µM); with B. subtilis ATCC 6633, 5 µg/mL (≈ 10.3 µM).
Turning to `CC(=Cc1nnc(-c2cccnc2)o1)CC1OCC(CC2OC2C(C)C(C)O)C(O)C1O` (stereo not shown) [Example 5, 2-(1-Normon-2-yl)-5-(3-pyridyl)-1,3,4-oxadiazole A], the MIC was 2.5 µg/mL (≈ 5.61 µM) with M. hyopneumoniae NB12; 1 µg/mL (≈ 2.24 µM) in the assay on M. hyopneumoniae LABER; 2.5 µg/mL (≈ 5.61 µM) in assay [1] (M. hyopneumoniae NCTC 101101, 6 days at 37° C, read-out: MIC); 2.5 µg/mL (≈ 5.61 µM) in assay [2] (setting [10]); 0.5 µg/mL (≈ 1.12 µM) in assay [3]; 4 µg/mL (≈ 8.98 µM) in the assay on E. coli ESS. In addition, the MIC in the assay on Staph. aureus Oxford (setting [11]) was 8 µg/mL (≈ 18 µM); in assay [4], 1 µg/mL (≈ 2.24 µM); in assay [7], 8 µg/mL (≈ 18 µM); in the assay on E. coli NCTC 10418 it was over 128 µg/mL; with Sarcina lutea 8340, over 128 µg/mL; in the assay with Staph. aureus Russell, 32 µg/mL (≈ 71.8 µM). For the same compound, the MIC was 4 µg/mL (≈ 8.98 µM) with Bacillus subtilis 6633; 32 µg/mL (≈ 71.8 µM) in the assay with Staph. aureus W2827; over 128 µg/mL with Strep. faecalis I; over 128 µg/mL in [5]; over 128 µg/mL in assay [8]; 32 µg/mL (≈ 71.8 µM) in the assay on Strep. spp. 64/848-C. Besides, the MIC with Strep. agalactiae 2788-B was 32 µg/mL (≈ 71.8 µM); in the assay with K. aerogenes A, over 128 µg/mL; in the assay with P. mirabilis 889 it was over 128 µg/mL; in [9] it was 1 µg/mL (≈ 2.24 µM); in the assay on Strep. dysgalactiae SPD1, 10 µg/mL (≈ 22.4 µM); in the assay on M. hyopneumoniae Str. 11 (144 h, M. hyopneumoniae Str. 11, 6 days at 37° C, read-out: MIC) it was 1 µg/mL (≈ 2.24 µM). The compound also displayed an MIC in the assay on B. subtilis ATCC 6633 of 2.5 µg/mL (≈ 5.61 µM).
For `CC(=Cc1nnc(-c2cccc(C#N)c2)o1)CC1OCC(CC2OC2C(C)C(C)O)C(O)C1O` (stereo not shown) [Example 11, 2-(m-Cyanophenyl)-5-(1-normon-2-yl)-1,3,4-oxadiazole A], the MIC was 0.25 µg/mL (≈ 0.532 µM) in the assay with M. hyopneumoniae NB12; 0.25 µg/mL (≈ 0.532 µM) in [1]; 0.25 µg/mL (≈ 0.532 µM) in assay [2] (setting [10]); 0.5 µg/mL (≈ 1.06 µM) in assay [3]; 2 µg/mL (≈ 4.26 µM) in the assay on E. coli ESS; 8 µg/mL (≈ 17 µM) in the assay on Staph. aureus Oxford (setting [11]). For the same compound, the MIC was 2 µg/mL (≈ 4.26 µM) in assay [4]; over 64 µg/mL with E. coli NCTC 10418; over 64 µg/mL in the assay on Sarcina lutea 8340; 32 µg/mL (≈ 68.2 µM) in the assay with Staph. aureus Russell; 2 µg/mL (≈ 4.26 µM) in the assay on Bacillus subtilis 6633; 16 µg/mL (≈ 34.1 µM) in the assay with Staph. aureus W2827. For the same compound, the MIC in the assay on Strep. faecalis I was over 64 µg/mL; in assay [5], over 64 µg/mL; in the assay with Strep. spp. 64/848-C, 2 µg/mL (≈ 4.26 µM); in the assay with Strep. agalactiae 2788-B, 2 µg/mL (≈ 4.26 µM); in the assay with K. aerogenes A, over 64 µg/mL; in the assay with P. mirabilis 889, over 64 µg/mL. Moreover, the MIC turned out to be 0.25 µg/mL (≈ 0.532 µM) in assay [6] (human, Neisseria catarrhalis 1502, 18 hours at 37° C, read-out: MIC); 0.1 µg/mL (≈ 0.213 µM) in assay [9]; 2.5 µg/mL (≈ 5.32 µM) against Strep. dysgalactiae SPD1; 0.25 µg/mL (≈ 0.532 µM) in the assay on M. hyopneumoniae Str. 11 (STR.11, 144 h); 2.5 µg/mL (≈ 5.32 µM) against B. subtilis ATCC 6633.
